Test results reported in patent US10899738B2 (THE REGENTS OF THE UNIVERSITY OF MICHIGAN, priority 2016, dated 2021).

What follows are compounds tested against menin protein (Homo sapiens (Human), UniProt O00255) (assay: biochemical). Settings: FP competitive binding; menin protein 4 nM, FAM-MM2 probe 2 nM; read-out: Menin Binding Affinity IC50.
Assay type: binding
In short: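 Test compounds displaced FAM-MM2 (2 nM) from 4 nM menin after 30 min equilibration at room temperature in PBS buffer containing bovine γ-globulin, 4% DMSO and Triton X-100. Binding was followed by fluorescence polarization. Competition curves were fitted by nonlinear regression to give IC50 and Ki.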

Sequence of menin protein (O00255 whole entry): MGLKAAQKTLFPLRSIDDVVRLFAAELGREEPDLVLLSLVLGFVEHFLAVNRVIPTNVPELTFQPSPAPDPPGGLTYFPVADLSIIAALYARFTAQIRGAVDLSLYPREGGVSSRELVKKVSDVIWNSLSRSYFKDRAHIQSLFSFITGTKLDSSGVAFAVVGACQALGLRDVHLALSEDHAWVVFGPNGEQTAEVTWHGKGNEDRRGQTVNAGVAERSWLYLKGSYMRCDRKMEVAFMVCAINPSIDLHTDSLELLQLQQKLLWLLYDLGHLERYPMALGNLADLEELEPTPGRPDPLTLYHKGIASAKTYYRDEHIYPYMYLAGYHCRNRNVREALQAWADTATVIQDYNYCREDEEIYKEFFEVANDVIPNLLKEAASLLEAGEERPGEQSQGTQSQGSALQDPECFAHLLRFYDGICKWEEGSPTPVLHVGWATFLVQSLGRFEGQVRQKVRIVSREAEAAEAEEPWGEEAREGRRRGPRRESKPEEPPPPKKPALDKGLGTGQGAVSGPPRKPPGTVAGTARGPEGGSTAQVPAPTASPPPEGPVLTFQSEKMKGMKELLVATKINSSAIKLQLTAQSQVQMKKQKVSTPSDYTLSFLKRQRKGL

| Structure (SMILES) | IC50 |
| --- | --- |
| CN(C)S(=O)(=O)c1ccc(N2CC(CN3CCC(C4(C5CCCC5)NCCc5ccccc54)CC3)C2)cc1 (stereo not shown) [compound 88, 4-(3-((4-(1-cyclopentyl-1,2,3,4-tetrahydroisoquinolin-1-yl)piperidin-1-yl)methyl)azetidin-1-yl)-N,N-dimethylbenzenesulfonamide] | 75 nM |
| CNC(=O)N[C@H]1CCC[C@@H]1C(CNC(=O)c1cocn1)(c1ccccc1)C1CCN(CC2CN(c3ccc(C#N)cc3)C2)CC1 (mixture of isomers) [compound 378, rac-N-(2-(1-((1-(4-cyanophenyl)azetidin-3-yl)methyl)piperidin-4-yl)-2-((1R,2S)-2-(3-methylureido)cyclopentyl)-2-phenylethyl)oxazole-4-carboxamide] | 32 nM |
| CC(=O)N[C@@H]1CCC[C@H]1C(C#N)(c1ccccc1)C1CCN(CC2CN(c3ccc(S(=O)(=O)C4CC4)cc3)C2)CC1 (mixture of isomers) [compound 282, rac-N-((1R,2S)-2-(cyano(1-((1-(4-(cyclopropylsulfonyl)phenyl)azetidin-3-yl)methyl)piperidin-4-yl)(phenyl)methyl)cyclopentyl) acetamide] | 3300 nM |
| O=C(Cc1ccc(S(=O)(=O)C2CC2)cc1)N1CCc2cc(C3(C4CCCC4)NCCc4ccccc43)ccc2C1 (stereo not shown) [compound 100, 1-(1-cyclopentyl-1,2,3,3′,4,4′-hexahydro-[1,6′-biisoquinolin]-2′-(1′H)-yl)-2-(4-(cyclopropylsulfonyl)phenyl) ethan-1-one] | 4700 nM |
| CNC(=O)O[C@@H]1CCC[C@H]1C(C#N)(c1ccccc1)C1CCN(CC2CN(c3ccc(S(=O)(=O)c4ccncc4)cc3)C2)CC1 (mixture of isomers) [compound 216, rac-(1R,2S)-2-(cyano(phenyl)(1-((1-(4-(pyridin-4-ylsulfonyl)phenyl)azetidin-3-yl)methyl)piperidin-4-yl)methyl)cyclopentyl methylcarbamate] | 396 nM |
| CNC(=O)O[C@H]1CCC[C@@H]1C(Cn1ccnc1)(c1ccccc1)C1CCN(CC2CN(c3ccc(C(F)(F)F)cc3)C2)CC1 (mixture of isomers) [compound 421, rac-(1S,2R)-2-(2-(1H-imidazol-1-yl)-1-phenyl-1-(1-((1-(4-(trifluoromethyl)phenyl)azetidin-3-yl)methyl)piperidin-4-yl)ethyl)cyclopentyl methylcarbamate] | 4 nM |
| COC(=O)N[C@@H]1CCC[C@H]1C(C#N)(c1ccccc1)C1CCN(CC2CN(c3ccc(S(=O)(=O)c4ccncc4)cc3)C2)CC1 (mixture of isomers) [Cpd. No. 346, methyl (rac-(1R,2S)-2-(cyano(phenyl)(1-((1-(4-(pyridin-4-ylsulfonyl)phenyl)azetidin-3-yl)methyl)piperidin-4-yl)methyl)cyclopentyl)carbamate] | 569 nM |
| CO[C@@H]1CCC[C@H]1C(C#N)(c1ccccc1)C1CCN(CCCOc2ccc(C#N)cc2)CC1 (mixture of isomers) [compound 175, rac-4-(3-(4-(cyano((1S,2R)-2-methoxycyclopentyl)(phenyl)methyl)piperidin-1-yl)propoxy)benzonitrile] | 8800 nM |
| CNC(=O)O[C@@H]1CCC[C@H]1C(C#N)(c1ccccc1)C1CCN(CC2CN(c3ccc(S(=O)(=O)c4nn(C)cc4Br)cc3)C2)CC1 (mixture of isomers) [compound 229, rac-(1R,2S)-2-((1-((1-(4-((4-bromo-1-methyl-1H-pyrazol-3-yl)sulfonyl)phenyl)azetidin-3-yl)methyl)piperidin-4-yl)(cyano)(phenyl)methyl) cyclopentyl methylcarbamate] | 160 nM |
| CS(=O)(=O)N[C@H]1CCC[C@@H]1C(C#N)(c1ccccc1)C1CCN(CC2CN(c3ccc(S(=O)(=O)c4ccncc4)cc3)C2)CC1 (mixture of isomers) [compound 267, rac-N-((1S,2R)-2-(cyano(phenyl)(1-((1-(4-(pyridin-4-ylsulfony)phenyl)azetidin-3-yl)methyl)piperidin-4-yl)methyl)cyclopentyl) methanesulfonamide] | 437 nM |
| CC(=O)N[C@@H]1CCC[C@H]1C(C#N)(c1ccccc1)C1CCN(CC2CN(c3ccc(C#N)cc3)C2)CC1 (mixture of isomers) [compound 383, rac-N-((1R,2S)-2-(cyano(1-((1-(4-cyanophenyl)azetidin-3-yl)methyl)piperidin-4-yl)(phenyl)methyl)cyclopentyl)acetamide] | 2500 nM |
| COCC[C@@H]1CCC[C@H]1C(C#N)(c1ccccc1)C1CCN(CC2CN(c3ccc(S(=O)(=O)c4ccnc(C)c4)cc3)C2)CC1 (mixture of isomers) [compound 337, rac-2-((1R,2S)-2-(2-methoxyethyl)cyclopentyl)-2-(1-((1-(4-((2-methylpyridin-4-yl)sulfonyl)phenyl)azetidin-3-yl)methyl)piperidin-4-yl)-2-phenylacetonitrile] | 25800 nM |
| N#Cc1ccc2c(c1)CCN(C(=O)CN1CCC(C3(C4CCCC4)NCCc4ccccc43)CC1)C2 (stereo not shown) [compound 83, 2-(2-(4-(1-cyclopentyl-1,2,3,4-tetrahydroisoquinolin-1-yl)piperidin-1-yl)acetyl)-1,2,3,4-tetrahydroisoquinoline-6-carbonitrile] | 847 nM |
| O=C(CN1CCC(C2(C3CCCC3)NCCc3ccccc32)CC1)N1CCCC1 (stereo not shown) [compound 74, 2-(4-(1-cyclopentyl-1,2,3,4-tetrahydroisoquinolin-1-yl)piperidin-1-yl)-1-(pyrrolidin-1-yl)ethan-1-one] | 3100 nM |
| N#Cc1ccc(OCCCN2CCC(C3(c4ccccc4)NCCc4ccccc43)CC2)cc1 (stereo not shown) [compound 246, 4-(3-(4-(1-phenyl-1,2,3,4-tetrahydroisoquinolin-1-yl)piperidin-1-yl)propoxy)benzonitrile] | 35600 nM |
| O=S(=O)(c1ccc(O[C@H]2C[C@@H](N3CCC(C4(C5CCCC5)NCCc5ccccc54)CC3)C2)cc1)C1CC1 (stereo partly shown) [compound 89, 1-cyclopentyl-1-(1-((1s,3s)-3-(4-(cyclopropylsulfonyl)phenoxy)cyclobutyl)piperidin-4-yl)-1,2,3,4-tetrahydroisoquinoline] | 13100 nM |
| N#Cc1ccc(N2CCCC(CN3CCC(C4(C5CCCC5)NCCc5ccccc54)CC3)C2)cc1 (stereo not shown) [compound 115, 4-(3-((4-(1-cyclopentyl-1,2,3,4-tetrahydroisoquinolin-1-yl)piperidin-1-yl)methyl)piperidin-1-yl)benzonitrile] | 4000 nM |
| CO[C@@H]1CCC[C@H]1C1(C2CCN(CCCOc3ccc(C(=O)O)cc3)CC2)CNCc2ccccc21 (mixture of isomers) [compound 327, rac-4-(3-(4-(4-((1S,2R)-2-methoxycyclopentyl)-1,2,3,4-tetrahydroisoquinolin-4-yl)piperidin-1-yl)propoxy)benzoic acid] | 485000 nM |
| CO[C@H]1CCC[C@H]1C(C#N)(c1ccccc1)C1CCN(CCCOc2ccc(C#N)cc2)CC1 (mixture of isomers) [compound 176, rac-4-(3-(4-(cyano((1S,2S)-2-methoxycyclopentyl)(phenyl)methyl)piperidin-1-yl)propoxy)benzonitrile] | 140000 nM |
| CN1CCC(C2(C3C=CCCN3)CN(C)Cc3ccccc32)CC1 (stereo not shown) [compound 167, 2-methyl-4-(1-methylpiperidin-4-yl)-4-(1,2,5,6-tetrahydropyridin-2-yl)-1,2,3,4-tetrahydroisoquinoline] | 172000 nM |
| CNC(=O)[C@H]1CCC[C@@H]1C(C#N)(c1ccccc1)C1CCN(CC2CN(c3ccc(S(=O)(=O)C4CC4)cc3)C2)CC1 (mixture of isomers) [compound 334, rac-(1S,2S)-2-(cyano(1-((1-(4-(cyclopropylsulfonyl)phenyl)azetidin-3-yl)methyl)piperidin-4-yl)(phenyl)methyl)-N-methylcyclopentane-1-carboxylate] | 3200 nM |
| O=S(=O)(c1ccncc1)c1ccc(N2CC(CN3CCC(C4(C5CCCC5)CN(CCN5CCOCC5)Cc5ccccc54)CC3)C2)cc1 (stereo not shown) [compound 54, 4-(2-(4-cyclopentyl-4-(1-((1-(4-(pyridin-4-ylsulfonyl)phenyl)azetidin-3-yl)methyl)piperidin-4-yl)-3,4-dihydroisoquinolin-2(1H)-yl)ethyl)morpholine] | 11 nM |
| CCC(CC)CC1(C2CCN(CCCOc3ccc(C#N)cc3)CC2)NCCc2ccccc21 (stereo not shown) [compound 252, 4-(3-(4-(1-(2-ethylbutyl)-1,2,3,4-tetrahydroisoquinolin-1-yl)piperidin-1-yl)propoxy)benzonitrile] | 1200 nM |
| Cn1cc(S(=O)(=O)c2ccc(N3CC(CN4CCC(C(CN5CCCC5)(C5=CCCC5)c5ccccc5)CC4)C3)cc2)cn1 (stereo not shown) [compound 357, 4-(1-(cyclopent-1-en-1-yl)-1-phenyl-2-(pyrrolidin-1-yl)ethyl)-1-((1-(4-((1-methyl-1H-pyrazol-4-yl)sulfonyl)phenyl)azetidin-3-yl)methyl)piperidine] | 32 nM |
| CCS(=O)(=O)c1ccc(N2CC(CN3CCC(C4(C5CCCC5)CN(C)Cc5ccccc54)CC3)C2)cc1 (stereo not shown) [compound 69, 4-cyclopentyl-4-(1-((1-(4-(ethylsulfonyl)phenyl)azetidin-3-yl)methyl)piperidin-4-yl)-2-methyl-1,2,3,4-tetrahydroisoquinoline] | 30 nM |
| c1ccc2c(c1)CCNC2(CC1CCNCC1)C1CCCC1 (stereo not shown) [compound 107, 1-cyclopentyl-1-(piperidin-4-ylmethyl)-1,2,3,4-tetrahydroisoquinoline] | 299000 nM |
| Cc1nccn1CC(c1ccccc1)(C1CCCC1)C1CCN(CC2CN(c3ccc(S(=O)(=O)C4CC4)cc3)C2)CC1 (stereo not shown) [compound 42, 4-(1-cyclopentyl-2-(2-methyl-1H-imidazol-1-yl)-1-phenylethyl)-1-((1-(4-(cyclopropylsulfonyl)phenyl)azetidin-3-yl)methyl)piperidine] | 29 nM |
| CC(C)CC1(C2CCN(CCCOc3ccc(C#N)cc3)CC2)NCCc2ccccc21 (stereo not shown) [compound 242, 4-(3-(4-(1-isobutyl-1,2,3,4-tetrahydroisoquinolin-1-yl)piperidin-1-yl)propoxy)benzontrile] | 2100 nM |
